Test systems include TK-10 renal; NCI-H522 lung; SK-MEL-5 melanoma; EKVX NSCLC; COLO 205 colon; BT-549 breast; HOP-62 NSCLC; MDA-MB-435; MALME-3M melanoma; HCT-15 colon; NCI-H460 lung; A549 NSCLC; IGROV1 ovarian; MDA-N; OVCAR-8 ovarian; SNB-19 CNS; ACHN renal; OVCAR-3 ovarian; SW-620 colon; HOP-92 NSCLC.
Test in all cases: NCI-60 cell line screen, 48 h

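Dose response: 5 concentrations. Exposure: 48 h. Format: 96-well plates. Endpoint: linear interpolation; highest concentration if not reached. Definition used: TGI = concentration required for complete inhibition of growth.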

Twelve compounds from PubChem BioAssay (NCI) can be followed below.

On to `O=c1[nH]c(=O)n(C2CC(O)C(CO)O2)cc1OCC1CCCCC1` (centres undefined), for which the TGI in the experiment on TK-10 renal, in the experiment with NCI-H522 lung, with SK-MEL-5 melanoma, in the experiment with EKVX NSCLC, in the experiment on COLO 205 colon and in the experiment on BT-549 breast was above 100 µM throughout. For the same compound, the TGI in the experiment on HOP-62 NSCLC, in the experiment on MDA-MB-435, in the experiment with MALME-3M melanoma, in the experiment on HCT-15 colon, in the experiment on NCI-H460 lung and in the experiment on A549 NSCLC was above 100 µM throughout. For the same compound, the TGI in the experiment with IGROV1 ovarian, with MDA-N, with OVCAR-8 ovarian, in the experiment on SNB-19 CNS, with ACHN renal and in the experiment on OVCAR-3 ovarian was above 100 µM each time.
For the compound `CN(CC(=O)O)c1ncc2c(n1)-c1ccccc1OC2`, the TGI with TK-10 renal, with NCI-H522 lung, with SW-620 colon, in the experiment with SK-MEL-5 melanoma, with EKVX NSCLC and in the experiment on COLO 205 colon was above 100 µM each time. Also, the TGI in the experiment on MDA-MB-435, in the experiment on MALME-3M melanoma, with HCT-15 colon, in the experiment with NCI-H460 lung, in the experiment on A549 NSCLC and in the experiment with IGROV1 ovarian was above 100 µM each time. Further, the TGI in the experiment with MDA-N, with HOP-92 NSCLC, in the experiment with OVCAR-8 ovarian, in the experiment on SNB-19 CNS and in the experiment on ACHN renal was above 100 µM in each case.
`COC(=O)C1C2CC3C1C3C2C(=O)OC` (centres undefined): the TGI in the experiment with TK-10 renal, in the experiment on NCI-H522 lung, with SW-620 colon, in the experiment with SK-MEL-5 melanoma, in the experiment with EKVX NSCLC and with COLO 205 colon was above 100 µM in each case. Further, the TGI in the experiment with HOP-62 NSCLC, in the experiment on MDA-MB-435, in the experiment on MALME-3M melanoma, in the experiment with HCT-15 colon, in the experiment with NCI-H460 lung and in the experiment on A549 NSCLC was above 100 µM each time. Besides, the TGI with IGROV1 ovarian, with MDA-N, in the experiment on HOP-92 NSCLC, with OVCAR-8 ovarian, in the experiment with SNB-19 CNS and with ACHN renal was above 100 µM each time. This compound also came in with a TGI in the experiment with OVCAR-3 ovarian above 100 µM.
Take `C/C(=N\NC(=S)N(C)CCN(C)C(=S)N/N=C(\C)c1ccccn1)c1ccccn1`: the TGI with TK-10 renal was 7.75 µM; in the experiment on NCI-H522 lung, 18.8 µM; in the experiment on SW-620 colon it was 22.9 µM; in the experiment with SK-MEL-5 melanoma, 2.16 µM; in the experiment with EKVX NSCLC it was 10.4 µM; in the experiment on COLO 205 colon it was 0.912 µM. Further, the TGI is 19 µM in the experiment with HOP-62 NSCLC; above 100 µM in the experiment with MDA-MB-435; 11.1 µM in the experiment with MALME-3M melanoma; 18.5 µM in the experiment with HCT-15 colon; 13.8 µM with A549 NSCLC; 3.96 µM in the experiment with IGROV1 ovarian. In addition, the TGI in the experiment on MDA-N came to 19.3 µM; in the experiment on HOP-92 NSCLC, 16.4 µM; in the experiment on OVCAR-8 ovarian, 7.32 µM; with SNB-19 CNS, 16.6 µM; in the experiment on ACHN renal, 11.4 µM; with OVCAR-3 ovarian, 9.53 µM.
On to `O=c1c2cc([N+](=O)[O-])ccc2n2n1CCCC2`, for which the TGI in the experiment with TK-10 renal, in the experiment with NCI-H522 lung, with SW-620 colon, with SK-MEL-5 melanoma, with EKVX NSCLC and in the experiment with COLO 205 colon was above 100 µM in each case. In addition, the TGI in the experiment with HOP-62 NSCLC, in the experiment with MDA-MB-435, in the experiment with MALME-3M melanoma, with HCT-15 colon, with NCI-H460 lung and in the experiment on A549 NSCLC was above 100 µM each time. Moreover, the TGI with IGROV1 ovarian, with MDA-N, in the experiment with HOP-92 NSCLC, with OVCAR-8 ovarian, in the experiment with SNB-19 CNS and in the experiment with ACHN renal was above 100 µM in each case. Besides, in the experiment on OVCAR-3 ovarian, the TGI was above 100 µM.
In the case of `COc1cc(N(Cc2ccc3nc(OC)c(OC)nc3c2)Cc2ccc3nc(OC)c(OC)nc3c2)cc(OC)c1OC`, the TGI in the experiment with TK-10 renal, in the experiment on NCI-H522 lung, in the experiment with SW-620 colon, in the experiment with SK-MEL-5 melanoma, with EKVX NSCLC and in the experiment on COLO 205 colon was above 50 µM throughout. In addition, the TGI with BT-549 breast, with HOP-62 NSCLC, in the experiment with MDA-MB-435, in the experiment with MALME-3M melanoma, in the experiment on HCT-15 colon and in the experiment with A549 NSCLC was above 50 µM in each case. Also, the TGI is above 50 µM in the experiment with MDA-N; above 50 µM in the experiment on OVCAR-8 ovarian; 47.7 µM with SNB-19 CNS; above 50 µM in the experiment with ACHN renal; above 50 µM in the experiment with OVCAR-3 ovarian.
Take `O=C(c1cc2c(c3ccccc13)NCCN=C2C(F)(F)F)C(F)(F)F`: the TGI was 78 µM with TK-10 renal; 72.7 µM in the experiment with NCI-H522 lung; above 100 µM in the experiment with SW-620 colon; 31 µM with SK-MEL-5 melanoma; above 100 µM in the experiment with EKVX NSCLC; 53 µM with HOP-62 NSCLC. The TGI in the experiment on MDA-MB-435 was above 100 µM; in the experiment on HCT-15 colon it was above 100 µM; in the experiment on NCI-H460 lung, 34.4 µM; with IGROV1 ovarian, above 100 µM; in the experiment on MDA-N it was above 100 µM; with HOP-92 NSCLC, 86.6 µM. Besides, the TGI in the experiment with OVCAR-8 ovarian is above 100 µM; in the experiment with ACHN renal it was 68.3 µM; in the experiment on OVCAR-3 ovarian, 80.9 µM.
On to `COC(=O)CSC(=S)Nc1nnc(NC(=S)SCOC(C)=O)n1C(=S)SCC(=O)OC`, for which the TGI with SW-620 colon was above 100 µM; with SK-MEL-5 melanoma, above 100 µM; in the experiment on EKVX NSCLC, above 100 µM; with COLO 205 colon, above 100 µM; in the experiment on BT-549 breast, above 100 µM; in the experiment on HOP-62 NSCLC, 37.5 µM. For the same compound, the TGI with MDA-MB-435, with HCT-15 colon, in the experiment with NCI-H460 lung, with IGROV1 ovarian, in the experiment on MDA-N and in the experiment with SNB-19 CNS was above 100 µM in each case. Moreover, the TGI in the experiment with ACHN renal and in the experiment with OVCAR-3 ovarian was above 100 µM each time.
Take `Clc1cc(Br)c2c3c(c(Br)cc(Cl)c13)C(Br)=C2Br`: the TGI with TK-10 renal is 46.6 µM; in the experiment on NCI-H522 lung, 38.8 µM; in the experiment with SW-620 colon, above 100 µM; in the experiment on EKVX NSCLC, above 100 µM; in the experiment with BT-549 breast, 78 µM; with HOP-62 NSCLC, above 100 µM. Also, the TGI in the experiment with MDA-MB-435 is above 100 µM; with MALME-3M melanoma, above 100 µM; in the experiment with HCT-15 colon, 37.6 µM; in the experiment on NCI-H460 lung, above 100 µM; in the experiment with A549 NSCLC, above 100 µM; in the experiment on IGROV1 ovarian, 36.5 µM. Also, the TGI with MDA-N was above 100 µM; in the experiment on OVCAR-8 ovarian, 93 µM; with SNB-19 CNS, above 100 µM; in the experiment on ACHN renal it was 36.3 µM; in the experiment on OVCAR-3 ovarian, above 100 µM.
For the compound `CC(C)(C)OC(=O)C1CC[C@@H](CC(=O)Oc2ccc([N+](=O)[O-])cc2)N1` (some centres undefined), the TGI in the experiment with TK-10 renal, in the experiment on NCI-H522 lung, in the experiment on SW-620 colon, in the experiment with SK-MEL-5 melanoma, in the experiment with EKVX NSCLC and in the experiment on COLO 205 colon was above 100 µM each time. Moreover, the TGI with MDA-MB-435, with MALME-3M melanoma, in the experiment with HCT-15 colon, in the experiment with NCI-H460 lung, in the experiment with A549 NSCLC and in the experiment with IGROV1 ovarian was above 100 µM throughout. The TGI in the experiment with MDA-N, in the experiment on HOP-92 NSCLC, with OVCAR-8 ovarian, in the experiment on SNB-19 CNS, in the experiment on ACHN renal and with OVCAR-3 ovarian was above 100 µM throughout.
With `CCC1C(=O)C(O)[C@H]2[C@@H]3C(O)CC4=CC(=O)CC[C@]4(C)[C@H]3CC[C@]12C` (some centres undefined), the TGI in the experiment with TK-10 renal, with NCI-H522 lung, in the experiment on SW-620 colon, in the experiment with SK-MEL-5 melanoma, with EKVX NSCLC and in the experiment with COLO 205 colon was above 50 µM each time. Further, the TGI in the experiment on HOP-62 NSCLC, in the experiment on MDA-MB-435, with MALME-3M melanoma, in the experiment with HCT-15 colon, in the experiment on NCI-H460 lung and with A549 NSCLC was above 50 µM each time. The TGI in the experiment on IGROV1 ovarian, in the experiment on MDA-N, with HOP-92 NSCLC, in the experiment with OVCAR-8 ovarian, with SNB-19 CNS and with ACHN renal was above 50 µM each time. For the same compound, the TGI in the experiment on OVCAR-3 ovarian is above 50 µM.
For `Cc1ccc(/C=C2\Cc3cccc(C)c3C2=O)c(C(=O)O)c1`, the TGI was above 100 µM with TK-10 renal; 60.8 µM in the experiment on NCI-H522 lung; above 100 µM in the experiment on SW-620 colon; above 100 µM in the experiment with SK-MEL-5 melanoma; above 100 µM with EKVX NSCLC; above 100 µM in the experiment on BT-549 breast. For the same compound, the TGI with HOP-62 NSCLC, in the experiment on MALME-3M melanoma, with HCT-15 colon, in the experiment on NCI-H460 lung, with A549 NSCLC and in the experiment with IGROV1 ovarian was above 100 µM throughout. Besides, the TGI is above 100 µM in the experiment with MDA-N; 53.6 µM in the experiment with HOP-92 NSCLC; above 100 µM in the experiment with OVCAR-8 ovarian; above 100 µM in the experiment with SNB-19 CNS; 88.1 µM with ACHN renal; above 100 µM with OVCAR-3 ovarian.
